Biological target: T1, YspRLIG1 (Yasminevirus RLIG1) (Yasminevirus sp. GU-2018, UniProt A0A5K0UB63)
T1 construct: gene YASMINEVIRUS_1364; minimal RNA ligase (NTase) fold; active-site Lys73
T1 sequence (A0A5K0UB63 1-276): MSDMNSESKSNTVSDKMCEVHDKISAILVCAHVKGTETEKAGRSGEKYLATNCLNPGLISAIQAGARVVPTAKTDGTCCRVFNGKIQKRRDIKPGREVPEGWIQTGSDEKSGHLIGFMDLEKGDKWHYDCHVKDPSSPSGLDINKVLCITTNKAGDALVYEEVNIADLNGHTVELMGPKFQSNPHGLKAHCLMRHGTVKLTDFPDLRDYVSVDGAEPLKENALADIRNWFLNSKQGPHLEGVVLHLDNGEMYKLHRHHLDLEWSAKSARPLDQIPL
Test: X-ray crystal structure
Format: binding
Settings: crystallised in the presence of ATP, active site, either AMP or ADP modelled

Row | SMILES | X-ray crystal structure (WT protein adenylated) | X-ray crystal structure
1 | Nc1ncnc2c1ncn2[C@@H]1O[C@H](COP(=O)(O)O)[C@@H](O)[C@H]1O [AMP] | In the WT structure, either AMP or ADP was modeled in the active site | 
2 | Nc1ncnc2c1ncn2[C@@H]1O[C@H](COP(=O)(O)OP(=O)(O)O)[C@@H](O)[C@H]1O [ADP] |  | In the ADP-bound YspRLIG1^WT structure, the O5-Pα bond is rotated

Reference: publication PMC11494293, “Biochemical and structural insights into a 5’ to 3’ RNA ligase reveal a potential role in tRNA ligation” (Proceedings of the National Academy of Sciences of the …, 2024)
